Consider ten compounds from ChEMBL document CHEMBL1201862, “PubChem BioAssay data set” (2004).

SMILES strings stand for the structures.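 Step 1: Grow cells in 96-well plates. Step 2: Expose to compound for 48 hours at 5 concentrations. Step 3: Interpolate endpoints linearly; if unreached, use highest concentration. GI50 = concentration required for 50% inhibition of growth.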 Activity calls are given as the source filed them. Cut-off read from the data, not from the text of the source: active = GI50 up to about 1.1 µM and inactive = higher. Bounds are passed on as bounds.

What all share (experiment): NCI-60 cell line screen, 48 h
The test system of test [1] is HCT-116.
Test [2] concerns RXF 393.
Test [3] concerns NCI-H460.
Test [4] concerns NCI-H522.
In test [5] the test system is SW-620.
The test system of test [6] is NCI-H23.
Test [7] relates to EKVX.
Test [8] concerns MCF7.
Test [9] deals with HL-60.
Test [10] relates to SK-MEL-2.
Test [11] relates to PC-3.
Test [12] deals with T47D.
The test system of test [13] is SK-MEL-28.
Test [14] relates to COLO 205.
For test [15], the system named is SK-OV-3.
The test system of test [16] is TK-10.
In test [17] the test system is SNB-75.
The subject of test [18] is K562.
Test [19] deals with DU-145.
In test [20] the test system is UACC-62.

For `CN(C)c1nc(N)c(C#N)c(C#N)c1C#N`, the GI50 in test [1] is > 10 µM (inactive); in [2] it was > 10 µM (inactive); in test [3] it was > 10 µM (inactive); in [4], 1.87 µM (inactive); in test [5], 8.73 µM (inactive); in test [6] it was > 7.46 µM (inactive). Moreover, the GI50 was > 10 µM (inactive) in [7]; > 10 µM (inactive) in test [8]; 2.21 µM (inactive) in test [9]; > 10 µM (inactive) in test [10]; > 10 µM (inactive) in test [11]; > 8.32 µM (inactive) in [12]. Moreover, the GI50 was > 10 µM (inactive) in test [13]; > 8.81 µM (inactive) in test [14]; > 10 µM (inactive) in test [15]; > 10 µM (inactive) in [16]; 9.68 µM (inactive) in [17]; > 4.61 µM (inactive) in [18]. The GI50 in test [19] and in [20] was > 10 µM (inactive) throughout.
`COc1ccc2c(c1)nc1n2C(N)=Nc2ccccc2S1`: the GI50 in [1] was 5.3 µM (inactive); in test [2], 30 µM (inactive); in test [3], 12.8 µM (inactive); in test [4] it was 16.6 µM (inactive); in test [5], 28.5 µM (inactive); in test [6], 40.6 µM (inactive). The GI50 was 28.5 µM (inactive) in test [7]; 11.3 µM (inactive) in test [8]; 2.64 µM (inactive) in test [9]; > 100 µM (inactive) in test [10]; 16.5 µM (inactive) in test [11]; 20.8 µM (inactive) in test [12]. The GI50 is > 80.5 µM (inactive) in test [13]; 6.08 µM (inactive) in test [14]; 67 µM (inactive) in [15]; > 100 µM (inactive) in test [16]; > 42.9 µM (inactive) in [17]; 4.91 µM (inactive) in test [18]. In addition, the GI50 is 35.5 µM (inactive) in test [19] and 21 µM (inactive) in test [20].
Consider `C=CCOC(=O)N1c2ccc(O)cc2[C@@]23O[C@@]24[C@@H]1C#C/C=C\C#C[C@]3(O)C(=O)C[C@@H]4C`, for which the GI50 in test [1] was 51.5 µM (inactive); in test [2], > 100 µM (inactive); in test [3] it was 11.5 µM (inactive); in test [4], 40.1 µM (inactive); in test [5], > 100 µM (inactive); in test [6] it was 22.7 µM (inactive). Moreover, the GI50 in test [7] is 78 µM (inactive); in [8], 61.8 µM (inactive); in test [9] it was 37.8 µM (inactive); in test [10], 77.8 µM (inactive); in [11], 34.8 µM (inactive); in [12] it was > 100 µM (inactive). Also, the GI50 in test [13] was > 100 µM (inactive); in test [14], 36.6 µM (inactive); in test [16], > 100 µM (inactive); in test [17] it was 27.2 µM (inactive); in test [18] it was 59.7 µM (inactive); in [19], > 100 µM (inactive). Also, in test [20], the GI50 is 99.8 µM (inactive).
Regarding `CCCCCCCCCCCCCCCC1(OC)C[N+](C)(C)CCO1` (stereo not given), the GI50 in test [1] is 1.63 µM (inactive); in test [2] it was 0.778 µM (active); in [3] it was 2.09 µM (inactive); in [4] it was 1.65 µM (inactive); in test [5] it was 3.21 µM (inactive); in [6], 1.3 µM (inactive). The GI50 in test [7] was 2.31 µM (inactive); in test [8], 0.221 µM (active); in [9], 0.0883 µM (active); in test [10], 2.38 µM (inactive); in [11], 2.4 µM (inactive); in test [12] it was 5.73 µM (inactive). Further, the GI50 in test [13] is 2.37 µM (inactive); in [14] it was 1.31 µM (inactive); in test [15], 4.89 µM (inactive); in test [16], 2.45 µM (inactive); in test [17] it was 0.0556 µM (active); in test [18], 1.85 µM (inactive). Moreover, the GI50 is 2.35 µM (inactive) in [19] and 2.76 µM (inactive) in test [20].
As to `C[C@H]1C2Cc3cc(O)ccc3[C@@]1(C)CCN2CCc1ccc(N)cc1`, the GI50 in test [1] was 15.9 µM (inactive); in test [2], 52.7 µM (inactive); in [3] it was 30.3 µM (inactive); in test [4], 19.7 µM (inactive); in [5], 15.3 µM (inactive); in test [6], > 100 µM (inactive). Moreover, the GI50 was > 100 µM (inactive) in test [7]; 15.2 µM (inactive) in test [8]; 38.3 µM (inactive) in test [9]; 41.9 µM (inactive) in [10]; 18.8 µM (inactive) in test [11]; 80.5 µM (inactive) in [12]. Also, the GI50 in test [13] is 18.6 µM (inactive); in test [14], 28.6 µM (inactive); in test [15], > 100 µM (inactive); in test [16], > 100 µM (inactive); in test [17] it was > 100 µM (inactive); in test [18] it was 22.3 µM (inactive). In addition, the GI50 in test [19] and in test [20] was > 100 µM (inactive) throughout.
With `C/C(=N\NC(N)=S)c1nc2cccnc2[nH]1`, the GI50 in [1] was 54 µM (inactive); in test [2], > 100 µM (inactive); in test [3], 45.7 µM (inactive); in test [4], > 68.5 µM (inactive); in test [5], 56.8 µM (inactive); in [7], 50 µM (inactive). Besides, the GI50 in test [8] is 26.8 µM (inactive); in test [9] it was 32.6 µM (inactive); in [10], > 100 µM (inactive); in test [11] it was 81.3 µM (inactive); in test [12] it was 45.1 µM (inactive); in [13], > 88.9 µM (inactive). Besides, the GI50 in test [14] was 38.8 µM (inactive); in [15], 30.2 µM (inactive); in test [16] it was > 80.4 µM (inactive); in test [17] it was > 100 µM (inactive); in [18] it was 71 µM (inactive); in test [19], 63.7 µM (inactive). Further, in [20], the GI50 was 47.2 µM (inactive).
For `CCC(=O)N(c1ccccc1)C(C)CN1CCC(O)(c2ccccc2)CC1` (stereo not given), the GI50 in test [1] was 80.9 µM (inactive); in test [2] it was > 100 µM (inactive); in test [4] it was > 100 µM (inactive); in test [6], > 100 µM (inactive); in test [7], > 100 µM (inactive); in [8] it was > 100 µM (inactive). For the same compound, the GI50 in test [9], in test [10], in test [11], in [12], in test [13] and in test [14] was > 100 µM (inactive) throughout. Further, the GI50 in test [15] is > 100 µM (inactive); in test [16], > 100 µM (inactive); in [17] it was > 100 µM (inactive); in test [18] it was 74.1 µM (inactive); in [19] it was > 100 µM (inactive); in test [20] it was > 100 µM (inactive).
In the case of `CCCCCCOC(=O)/C=C/[C@]1(CO)C/C(=C/CC(C(C)C)C(C)C)C(=O)O1`, the GI50 in test [1] was 13.2 µM (inactive); in test [2] it was 18.2 µM (inactive); in test [3], 1.74 µM (inactive); in test [4] it was 12.3 µM (inactive); in test [5] it was 12.5 µM (inactive); in test [6], 12.2 µM (inactive). The GI50 in test [7] is 1.28 µM (inactive); in test [8], 16 µM (inactive); in test [9], 2.7 µM (inactive); in [10], 16.2 µM (inactive); in test [11], 11.5 µM (inactive); in test [12], 16.8 µM (inactive). Moreover, the GI50 is 10.4 µM (inactive) in [13]; 18.2 µM (inactive) in test [15]; 1.77 µM (inactive) in [16]; 14.2 µM (inactive) in test [17]; 0.406 µM (active) in test [18]; 18.2 µM (inactive) in test [19]. Moreover, the GI50 in test [20] is 13.9 µM (inactive).
For `CC1(C)CCC(C)(C)c2cc(C(=O)Nc3ccc(C(=O)O)cc3)ccc21`, the GI50 in test [1] was 19.3 µM (inactive); in [2], 7.62 µM (inactive); in [3], 19.9 µM (inactive); in test [4], 26.9 µM (inactive); in test [5] it was 36.7 µM (inactive); in test [6] it was 17.9 µM (inactive). Also, the GI50 is 19.5 µM (inactive) in test [7]; 33.1 µM (inactive) in test [8]; 3.52 µM (inactive) in test [9]; 22.1 µM (inactive) in test [10]; 19.9 µM (inactive) in test [11]; 15.5 µM (inactive) in [12]. The GI50 is 40.3 µM (inactive) in [13]; 18 µM (inactive) in test [14]; 19.8 µM (inactive) in [15]; 26.1 µM (inactive) in [16]; 26.4 µM (inactive) in test [17]; 22.8 µM (inactive) in test [18]. Besides, the GI50 was 28.4 µM (inactive) in test [19] and 17.3 µM (inactive) in [20].
Consider `COc1cc2c(cc1O)Cc1c-2[n+](C)cc2cc(OC)c(OC)cc12`, for which the GI50 is 15.3 µM (inactive) in test [1]; 22.9 µM (inactive) in test [2]; 3.28 µM (inactive) in test [3]; 0.49 µM (active) in [4]; 33.4 µM (inactive) in test [5]; 12.6 µM (inactive) in test [6]. Besides, the GI50 in [7] was > 90.8 µM (inactive); in test [8], 15.2 µM (inactive); in test [9], 2.75 µM (inactive); in test [10], > 100 µM (inactive); in [11], 28.8 µM (inactive); in test [12], 19.1 µM (inactive). In addition, the GI50 was > 89.9 µM (inactive) in [13]; > 74.3 µM (inactive) in test [14]; > 35.6 µM (inactive) in test [15]; > 88.1 µM (inactive) in [16]; 63.2 µM (inactive) in test [17]; 1.93 µM (inactive) in test [18]. Further, the GI50 in test [19] was 4.23 µM (inactive); in [20], 7.43 µM (inactive).
